Data reported in patent US8404677B2, “Kinase inhibitors” (Genosco, priority 2009, dated 2013).

Key:
SNB-75 = assay: cells; format: cell-based; conditions: SNB-75 (CNS Cancer)
LOX IMVI = assay: cells; format: cell-based; conditions: LOX IMVI (Melanoma)
truncated human RET = biological target: T1, truncated human RET (Homo sapiens, UniProt P07949); assay: Inhibition of enzymatic kinase activity (LANCE Ulight); format: biochemical
T1 construct: truncated human FAK, RET, FLT3, JAK2, and LRRK2 (CARNA BIOSCIENCES™); purchased Carna Biosciences
T1 sequence (P07949 658-1114 limits assumed): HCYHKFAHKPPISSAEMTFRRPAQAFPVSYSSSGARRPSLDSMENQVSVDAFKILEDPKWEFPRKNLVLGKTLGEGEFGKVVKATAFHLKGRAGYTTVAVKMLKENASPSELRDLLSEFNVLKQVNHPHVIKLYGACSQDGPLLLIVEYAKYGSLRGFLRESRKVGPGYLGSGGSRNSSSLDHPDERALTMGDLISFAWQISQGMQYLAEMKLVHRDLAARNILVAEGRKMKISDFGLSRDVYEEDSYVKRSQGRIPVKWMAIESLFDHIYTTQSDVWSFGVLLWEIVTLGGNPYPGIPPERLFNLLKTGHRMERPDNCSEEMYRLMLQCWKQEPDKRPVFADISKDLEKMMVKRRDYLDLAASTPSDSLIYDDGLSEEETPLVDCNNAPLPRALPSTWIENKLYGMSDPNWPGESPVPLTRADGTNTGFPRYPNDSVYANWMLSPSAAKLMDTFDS

truncated human FAK = biological target: T2, truncated human FAK (Homo sapiens, UniProt Q05397); assay: as above; format: biochemical; conditions: at 1 μM concentration; read-out: FAK percentage inhibition
T2 construct: truncated human FAK, RET, FLT3, JAK2, and LRRK2 (CARNA BIOSCIENCES™); purchased Carna Biosciences

truncated human LRRK2 = truncated human LRRK2 (Homo sapiens, UniProt Q5S007); assay: as above; format: biochemical
MCF7 = assay: cells; format: cell-based; conditions: MCF7 (Breast Cancer)
PC-3 = assay: cells; format: cell-based; conditions: PC-3 (Prostate Cancer)
OVCAR-5 = assay: cells; format: cell-based; conditions: OVCAR-5 (Ovarian Cancer)
PYK2 = PYK2 (Homo sapiens, UniProt Q14289); assay: Inhibition of enzymatic kinase activity (LANCE Ulight); format: biochemical; parameters: Purified full-length human SYK, ZAP70, PIM1, PYK2; purchased Carna Biosciences; conditions: at 1 μM concentration; read-out: PYK2 percentage inhibition
Description: (§1) Inhibition of Enzymatic SYK, ZAP70, PYK2, FAK, PIM1, RET, FLT3, JAK2 and LRRK2 Kinase Activity
(§2) Compounds of the invention were initially diluted to 10 mM in 100% DMSO (CALBIOCHEM™) for storage and made into kinase buffer solution to create a compound concentration ranging from 1 uM and 10 uM. Serial dilutions of compounds of the invention were dispensed into a 96-well plate (GREINER BIOSCIENCES™) at 6 μL each. Purified full-length human SYK, ZAP70, PIM1, PYK2 and truncated human FAK, RET, FLT3, JAK2, and LRRK2 (CARNA BIOSCIENCES™) were diluted in kinase buffer and added to the compound solutions and pre-incubated for 30 minutes at room temperature (1 hour for PYK2). […] The reaction mixture was incubated for 1 hour (2 hours for PYK2). Following the incubation, the stop solution made with EDTA, water, and Lance detection buffer ([…]™) was added (12 μL each) to stop phosphorylation.

SYK = SYK (Homo sapiens, UniProt P43405); assay: as above; format: biochemical; parameters: Purified full-length human SYK, ZAP70, PIM1, PYK2; purchased Carna Biosciences; conditions: at 1 μM concentration; read-out: SYK percentage inhibition
Description: as §1, §2

M14 = assay: cells; format: cell-based; conditions: M14 (Melanoma)
OVCAR-8 = assay: cells; format: cell-based; conditions: OVCAR-8 (Ovarian Cancer)
UACC-62 = assay: cells; format: cell-based; conditions: UACC-62 (Melanoma)
HS 578T = assay: cells; format: cell-based; conditions: HS 578T (Breast Cancer)
OVCAR-4 = assay: cells; format: cell-based; conditions: OVCAR-4 (Ovarian Cancer)
[1] = Homo sapiens, read-out: LC50 (the source's name)

T2 sequence (Q05397 376-1052 limits assumed): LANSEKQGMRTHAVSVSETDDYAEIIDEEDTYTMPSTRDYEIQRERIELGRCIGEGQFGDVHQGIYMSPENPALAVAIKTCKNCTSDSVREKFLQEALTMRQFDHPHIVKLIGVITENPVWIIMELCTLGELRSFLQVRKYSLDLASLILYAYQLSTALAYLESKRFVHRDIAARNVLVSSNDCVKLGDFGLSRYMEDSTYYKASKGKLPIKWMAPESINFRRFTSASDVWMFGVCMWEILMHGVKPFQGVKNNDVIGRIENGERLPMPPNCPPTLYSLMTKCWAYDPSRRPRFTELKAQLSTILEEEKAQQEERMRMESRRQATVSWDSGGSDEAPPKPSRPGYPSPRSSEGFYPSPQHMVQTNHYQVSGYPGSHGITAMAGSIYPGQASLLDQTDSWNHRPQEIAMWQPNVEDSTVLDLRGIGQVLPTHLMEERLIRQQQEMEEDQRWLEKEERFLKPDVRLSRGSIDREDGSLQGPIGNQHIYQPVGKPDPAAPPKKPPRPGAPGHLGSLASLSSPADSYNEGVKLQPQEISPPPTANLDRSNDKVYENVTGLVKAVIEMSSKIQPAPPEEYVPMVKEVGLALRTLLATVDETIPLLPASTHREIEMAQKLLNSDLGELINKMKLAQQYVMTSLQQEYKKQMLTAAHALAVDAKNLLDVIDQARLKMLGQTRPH
Sequence of truncated human LRRK2 (Q5S007 1879-2138 limits assumed): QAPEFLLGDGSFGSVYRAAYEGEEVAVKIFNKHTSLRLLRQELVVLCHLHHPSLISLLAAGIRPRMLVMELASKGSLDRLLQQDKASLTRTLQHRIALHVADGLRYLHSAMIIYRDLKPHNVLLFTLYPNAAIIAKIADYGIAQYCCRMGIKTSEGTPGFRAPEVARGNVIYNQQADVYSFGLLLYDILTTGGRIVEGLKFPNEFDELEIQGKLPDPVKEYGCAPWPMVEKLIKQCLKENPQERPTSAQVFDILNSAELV
Sequence of PYK2 (Q14289 whole entry): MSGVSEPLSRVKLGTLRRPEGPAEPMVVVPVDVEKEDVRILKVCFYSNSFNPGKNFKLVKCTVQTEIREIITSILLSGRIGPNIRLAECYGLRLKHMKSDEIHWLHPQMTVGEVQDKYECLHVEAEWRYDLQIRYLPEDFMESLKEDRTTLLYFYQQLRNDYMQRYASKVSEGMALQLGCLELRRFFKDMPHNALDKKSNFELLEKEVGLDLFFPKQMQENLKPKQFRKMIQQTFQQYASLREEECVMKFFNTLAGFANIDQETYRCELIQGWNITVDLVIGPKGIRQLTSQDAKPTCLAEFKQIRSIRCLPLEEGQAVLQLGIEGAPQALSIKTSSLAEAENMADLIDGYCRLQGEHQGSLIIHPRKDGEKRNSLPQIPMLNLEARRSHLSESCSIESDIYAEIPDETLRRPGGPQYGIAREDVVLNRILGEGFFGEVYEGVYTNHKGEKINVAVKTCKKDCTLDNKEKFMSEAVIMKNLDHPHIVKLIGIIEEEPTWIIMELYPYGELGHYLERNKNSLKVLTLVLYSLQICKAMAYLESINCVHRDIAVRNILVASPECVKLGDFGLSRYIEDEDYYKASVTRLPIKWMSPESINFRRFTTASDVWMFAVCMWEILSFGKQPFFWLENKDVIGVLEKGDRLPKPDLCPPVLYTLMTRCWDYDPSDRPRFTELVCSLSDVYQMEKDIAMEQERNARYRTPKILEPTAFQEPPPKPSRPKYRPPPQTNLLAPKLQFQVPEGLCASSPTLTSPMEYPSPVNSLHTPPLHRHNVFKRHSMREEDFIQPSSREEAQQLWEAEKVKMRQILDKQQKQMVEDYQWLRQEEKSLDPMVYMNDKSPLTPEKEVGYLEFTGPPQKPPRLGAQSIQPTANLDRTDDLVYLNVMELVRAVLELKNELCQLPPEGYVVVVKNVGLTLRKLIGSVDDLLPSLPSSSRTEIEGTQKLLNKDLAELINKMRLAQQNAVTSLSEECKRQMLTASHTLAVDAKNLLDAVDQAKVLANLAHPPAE

Molecule `O=c1[nH]ccc2nc(N3CCC(O)CC3)nc(Nc3cccc(C(F)(F)F)c3)c12` [Compound 6, 2-(4-hydroxypiperidin-1-yl)-4-(3-(trifluoromethyl)phenylamino)pyrido[4,3-d]pyrimidine-5(6H)-one] has a GI50 (SNB-75; Homo sapiens) of 5.75 µM, an IC50 (SNB-75; Homo sapiens) of 77.6 µM and a CC50 (SNB-75; [1]) of 100 µM. It also gave a TGI (SNB-75) of 81.3 µM, a GI50 (LOX IMVI; Homo sapiens) of 1.41 µM and an IC50 (LOX IMVI; Homo sapiens) of 2.63 µM. It also gave a CC50 (LOX IMVI; [1]) of 91.2 µM, a TGI (LOX IMVI) of 16.6 µM and an IC50 (truncated human RET) of 0.0942 µM. The inhibition at 1 µM (truncated human FAK) was 78%, the IC50 (truncated human LRRK2) was 0.054 µM and the GI50 (MCF7; Homo sapiens) was 2.82 µM. It also gave an IC50 (MCF7; Homo sapiens) of 4.07 µM, a CC50 (MCF7; [1]) of 100 µM and a TGI (MCF7) of 12.6 µM. It also gave a GI50 (PC-3; Homo sapiens) of 2.29 µM, an IC50 (PC-3; Homo sapiens) of 4.68 µM and a CC50 (PC-3; [1]) of 93.3 µM. It also gave a TGI (PC-3) of 12.9 µM, a GI50 (OVCAR-5; Homo sapiens) of 28.2 µM and an IC50 (OVCAR-5; Homo sapiens) of 74.1 µM. It also gave a CC50 (OVCAR-5; [1]) of 100 µM, a TGI (OVCAR-5) of 93.3 µM and an inhibition at 1 µM (PYK2) of 83%. It also gave an inhibition at 1 µM (SYK) of 88%, a GI50 (M14; Homo sapiens) of 1.55 µM and an IC50 (M14; Homo sapiens) of 3.31 µM. For the same molecule, the CC50 (M14; [1]) was 32.4 µM, the TGI (M14) was 8.32 µM and the GI50 (OVCAR-8; Homo sapiens) was 3.31 µM. For the same molecule, the IC50 (OVCAR-8; Homo sapiens) was 5.01 µM, the CC50 (OVCAR-8; [1]) was 100 µM and the TGI (OVCAR-8) was 40.7 µM. For the same molecule, the GI50 (UACC-62; Homo sapiens) was 1.82 µM, the IC50 (UACC-62; Homo sapiens) was 3.98 µM and the CC50 (UACC-62; [1]) was 27.5 µM. The TGI (UACC-62) was 6.92 µM, the TGI (HS 578T) was 14.1 µM and the GI50 (HS 578T; Homo sapiens) was 1.95 µM. It also gave an IC50 (HS 578T; Homo sapiens) of 43.7 µM, a CC50 (HS 578T; [1]) of 100 µM and a GI50 (OVCAR-4; Homo sapiens) of 1.74 µM. It also gave an IC50 (OVCAR-4; Homo sapiens) of 9.12 µM, an LC50 (OVCAR-4; Homo sapiens) of 100 µM and a TGI (OVCAR-4) of 36.3 µM.
